Data reported in patent publication US20040097737A1 (priority 2001, published 2004).

Tested on: patients diagnosed as acute attack of vertigo
Conditions: human, in vivo

OC(CCCN1CCCCC1)(c1ccccc1)c1ccccc1 [Diphenidol]
Total effective (patients effective/sample): 19/28
Total effective percentage: 67.9%
